This note sets out measurements from patent US10130634B2, “Therapeutic agent for ophthalmic disease” (MITSUBISHI TANABE PHARMA CORPORATION, priority 2013, dated 2018).

The subject of the experiment is choroidal neovascularization (CNV). As to the kind of experiment: laser irradiation-induced choroidal neovascularization mouse model (CNV model). It counts as in vivo, male C57BL/6J mouse. The conditions noted are these: oral 20 mg/kg, once on laser-induction day then twice per day; compared to vehicle (0.5% hydroxypropylmethylcellulose) oral group; t-test p<0.05; FIG. 1. The protocol: As a result, VEGF is produced, and a new blood vessel is developed. Therefore, the CNV model is an experimental model showing the efficacy on a disease associated with ocular angiogenesis via VEGF.
Using (2S)-[4-(carboxymethyl)thiazol-2-ylthio]-N-{[4-(3,4-dichlorobenzyl)morpholin-2-yl]methyl}acetamide hydrobromide as a test compound, the following experiment was performed.
Laser was irradiated (6 spot irradiation) on one eye of male C57BL/6J mouse (7-week-old) to experimentally induce CNV.
The mouse was intramuscularly administered (1 mL/kg) with a ketamine hydrochloride/xylazine hydrochloride (1:1, v/v) mixed solution into the thigh and, after systemic anesthesia, mydriasis was induced with mydriatic eye drops, and laser irradiation (wavelength 532 nm, spot size 50 μm, irradiation time 0.1 second, laser output 120 mW) was performed at 6 points while avoiding thick capillary in the retina. […]
At 7 days from the laser irradiation, under systemic anesthesia by intramuscular administration (1 mL/kg) of a ketamine hydrochloride/xylazine hydrochloride (1:1, v/v) mixed solution into the thigh, a 4% FITC-dextran solution was administered at 0.5 mL/animal from the tail vein. […] Using a confocal microscope (OLYMPUS FV-1000D; magnification: ×20, number of pixels: 512 pixel×512 pixel), CNV site in a flat mount specimen was photographed, and measured using an image analysis software (NIH ImageJ). […]

SMILES strings stand for the structures.

As for `Br.O=C(O)Cc1csc(SCC(=O)NC[C@H]2CN(Cc3ccc(Cl)c(Cl)c3)CCO2)n1` [test compound, (2S)-[4-(carboxymethyl)thiazol-2-ylthio]-N-{[4-(3,4-dichlorobenzyl)morpholin-2-yl]methyl}acetamide hydrobromide], the “CNV area after 7 days from laser irradiation (CNV suppressive effect)” value was “significant CNV suppressive effect”.
